Assay results: patent publication US8148400B2, “Thiazolyl compounds useful as kinase inhibitors” (Bristol-Myers Squibb Company, priority 2006, dated 2012)
Counter-ions that a name gives are not always drawn.

biological target: IGF1-receptor (Homo sapiens, UniProt P08069); experiment: IGF1-Receptor Tyrosine Kinase Assay; assay type: biochemical; conditions: ATP 25 μM; FL-peptide 1.5 μM; IGF1-Receptor 14 nM; 60 min room temperature; read-out: IGF-1R IC50
Protocol: D. IGF1-Receptor Tyrosine Kinase Assay
The assays were performed in U-bottom 384-well plates. The final assay volume was 30 μl prepared from 15 μl additions of enzyme and substrates (fluoresceinated IGF1R substrate peptide and ATP) and test compounds in assay buffer (100 mM HEPES pH 7.4, 10 mM MnCl2, 0.015% Brij35 and 4 mM DTT). The reaction was initiated by the combination of IGF1-receptor with substrates and test compounds. The reaction was incubated at room temperature for 60 min. and terminated by adding 30 μl of 35 mM EDTA to each sample. The reaction mixture was analyzed on the Caliper LabChip 3000 by electrophoretic separation of the fluorescent substrate and phosphorylated product. Inhibition data were calculated by comparison to no enzyme control reactions for 100% inhibition and vehicle-only reactions for 0% inhibition. The final concentration of reagents in the assays is ATP, 25 μM; FL-peptide, 1.5 μM; IGF1-Receptor, 14 nM; and DMSO, 1.6%. Dose response curves were generated to determine the concentration required to inhibit 50% of kinase activity (IC50). Compounds were dissolved at 10 mM in dimethylsulfoxide (DMSO) and evaluated at eleven concentrations, each in duplicate. IC50 values were derived by non-linear regression analysis.

IGF1-receptor, sequence (P08069 31-1367): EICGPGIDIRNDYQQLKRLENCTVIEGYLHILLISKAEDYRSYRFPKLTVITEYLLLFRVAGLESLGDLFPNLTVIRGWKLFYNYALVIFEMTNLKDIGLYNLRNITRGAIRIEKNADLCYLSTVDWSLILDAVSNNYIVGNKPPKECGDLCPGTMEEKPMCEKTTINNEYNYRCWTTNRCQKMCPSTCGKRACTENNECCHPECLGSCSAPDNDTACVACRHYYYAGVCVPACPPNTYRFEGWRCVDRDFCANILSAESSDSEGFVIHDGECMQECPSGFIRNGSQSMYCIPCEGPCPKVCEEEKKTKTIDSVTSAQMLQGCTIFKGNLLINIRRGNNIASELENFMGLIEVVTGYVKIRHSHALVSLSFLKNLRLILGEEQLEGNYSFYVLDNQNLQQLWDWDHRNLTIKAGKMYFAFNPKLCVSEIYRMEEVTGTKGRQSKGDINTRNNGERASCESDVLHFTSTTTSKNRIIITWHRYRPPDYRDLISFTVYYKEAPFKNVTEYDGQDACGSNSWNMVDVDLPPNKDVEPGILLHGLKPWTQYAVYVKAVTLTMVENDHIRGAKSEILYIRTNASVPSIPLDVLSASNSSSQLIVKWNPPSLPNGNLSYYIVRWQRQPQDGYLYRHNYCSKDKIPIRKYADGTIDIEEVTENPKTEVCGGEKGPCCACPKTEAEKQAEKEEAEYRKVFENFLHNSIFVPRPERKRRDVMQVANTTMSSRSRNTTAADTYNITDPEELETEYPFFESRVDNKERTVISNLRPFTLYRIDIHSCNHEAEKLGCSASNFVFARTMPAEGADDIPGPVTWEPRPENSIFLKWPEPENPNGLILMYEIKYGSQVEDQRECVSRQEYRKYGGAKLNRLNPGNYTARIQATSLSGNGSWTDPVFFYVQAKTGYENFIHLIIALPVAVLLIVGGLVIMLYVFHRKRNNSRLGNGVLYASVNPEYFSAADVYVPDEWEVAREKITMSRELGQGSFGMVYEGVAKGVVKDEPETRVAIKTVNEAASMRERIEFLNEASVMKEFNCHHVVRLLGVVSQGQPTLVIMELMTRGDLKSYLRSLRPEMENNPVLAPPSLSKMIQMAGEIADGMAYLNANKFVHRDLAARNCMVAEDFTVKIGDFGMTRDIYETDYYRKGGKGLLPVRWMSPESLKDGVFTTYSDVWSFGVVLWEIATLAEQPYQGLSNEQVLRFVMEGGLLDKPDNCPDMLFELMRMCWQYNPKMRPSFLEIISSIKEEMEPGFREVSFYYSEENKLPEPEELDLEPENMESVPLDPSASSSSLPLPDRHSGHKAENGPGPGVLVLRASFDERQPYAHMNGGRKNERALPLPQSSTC

Row | IC50 [nM] | Compound
1 | 288 | Cc1ccnc(Nc2ncc(Sc3ccnc(C(=O)NCC(c4ccccc4)c4cccc(CO)c4)c3F)s2)c1 (stereo not drawn) [Example 67, 3-Fluoro-N-(2-(3-(hydroxymethyl)phenyl)-2-phenylethyl)-4-(2-(4-methylpyridin-2-ylamino)thiazol-5-ylthio)picolinamide hydrochloride]
2 | 250 | O=C(NCC(c1ccccc1)c1ccccc1CO)c1nccc(Sc2cnc(Nc3ccccn3)s2)c1F (stereo not drawn) [Example 63, 3-Fluoro-N-(2-(2-(hydroxymethyl)phenyl)-2-phenylethyl)-4-(2-(pyridin-2-ylamino)thiazol-5-ylthio)picolinamide]
3 | 1520 | Cc1ccnc(Nc2ncc(Sc3ccnc(C(=O)NCC(c4ccccc4)c4ccccc4Br)c3F)s2)c1 (stereo not drawn) [Example 58, N-(2-(2-bromophenyl)-2-phenylethyl)-3-fluoro-4-(2-(4-methylpyridin-2-ylamino)thiazol-5-ylthio)picolinamide]
4 | 3 | CCCC(O)(CNC(=O)c1nccc(Sc2cnc(Nc3ccc(CNC)cn3)s2)c1F)c1ccccc1 (stereo not drawn) [Example 82, 3-Fluoro-N-(2-hydroxy-2-phenylpentyl)-4-(2-(5-((methylamino)methyl)pyridin-2-ylamino)thiazol-5-ylthio)picolinamide]
5 | 1 | Cc1ccnc(Nc2ncc(Sc3ccnc(C(=O)NCC(c4ccccc4)c4ccccc4CO)c3F)s2)c1 (stereo not drawn) [Example 65, 3-Fluoro-N-(2-(2-(hydroxymethyl)phenyl)-2-phenylethyl)-4-(2-(4-methylpyridin-2-ylamino)thiazol-5-ylthio)picolinamide]
6 | 886 | Cc1ccnc(Nc2ncc(Sc3ccnc(C(=O)NCC(CN4CCCCC4)(c4ccccc4)c4ccccc4)c3F)s2)c1 [Example 49, N-(2,2-diphenyl-3-(piperidin-1-yl)propyl)-3-fluoro-4-(2-(4-methylpyridin-2-ylamino)thiazol-5-ylthio)picolinamide]
7 | 693 | O=C(NCCc1c[nH]c2ccc(O)cc12)c1nccc(Sc2cnc(Nc3ccccn3)s2)c1F [Example 33, 3-Fluoro-N-(2-(5-hydroxy-1H-indol-3-yl)ethyl)-4-(2-(pyridin-2-ylamino)thiazol-5-ylthio)picolinamide]
8 | 199 | Cc1ccnc(Nc2ncc(Sc3ccnc(C(=O)NCC(CNC(C)(C)C)(c4ccccc4)c4ccccc4)c3F)s2)c1 [Example 55, N-(3-(tert-butylamino)-2,2-diphenylpropyl)-3-fluoro-4-(2-(4-methylpyridin-2-ylamino)thiazol-5-ylthio)picolinamide]
9 | 4 | CCCC(O)(CNC(=O)c1nccc(Sc2cnc(Nc3ccc(CNC(=O)CN(C)C)cn3)s2)c1F)c1ccccc1 (stereo not drawn) [Example 77, 4-(2-(5-((2-(Dimethylamino)acetamido)methyl)pyridin-2-ylamino)thiazol-5-ylthio)-3-fluoro-N-(2-hydroxy-2-phenylpentyl)picolinamide]
10 | 3 | Cc1ccnc(Nc2ncc(Sc3ccnc(C(=O)NCC(CN(C)CCO)(c4ccccc4)c4ccccc4)c3F)s2)c1 [Example 52, 3-Fluoro-N-(3-((2-hydroxyethyl)(methyl)amino)-2,2-diphenylpropyl)-4-(2-(4-methylpyridin-2-ylamino)thiazol-5-ylthio)picolinamide]
11 | 2950 | CC(C)(C)CNCC(CNC(=O)c1nccc(Sc2cnc(Nc3ccccn3)s2)c1F)(c1ccccc1)c1ccccc1 [Example 36, 3-Fluoro-N-(3-(neopentylamino)-2,2-diphenylpropyl)-4-(2-(pyridin-2-ylamino)thiazol-5-ylthio)picolinamide]
12 | 5 | CCNCC(CNC(=O)c1nccc(Sc2cnc(Nc3cc(C)ccn3)s2)c1F)(c1ccccc1)c1ccccc1 [Example 69, N-(3-(ethylamino)-2,2-diphenylpropyl)-3-fluoro-4-(2-(4-methylpyridin-2-ylamino)thiazol-5-ylthio)picolinamide]
13 | 891 | Cc1ccnc(Nc2ncc(Sc3ccnc(C(=O)NCC(c4ccccc4)c4ccccc4C)c3F)s2)c1 (stereo not drawn) [Example 56, 3-fluoro-4-(2-(4-methylpyridin-2-ylamino)thiazol-5-ylthio)-N-(2-phenyl-2-o-tolylethyl)picolinamide]
14 | 394 | CCC[C@@](O)(CNC(=O)c1nccc(Sc2cnc(Nc3nccc4sccc34)s2)c1F)c1ccccc1 [Example 83, (S)-3-fluoro-N-(2-hydroxy-2-phenylpentyl)-4-(2-(thieno[3,2-c]pyridin-4-ylamino)thiazol-5-ylthio)picolinamide]

Row | Compound | IC50 [nM]
15 | (S)-3-Fluoro-N-(2-(2-(hydroxymethyl)phenyl)-2-phenylethyl)-4-(2-(pyridin-2-ylamino)thiazol-5-ylthio)picolinamide and (R)-3-fluoro-N-(2-(2-(hydroxymethyl)phenyl)-2-phenylethyl)-4-(2-(pyridin-2-ylamino)thiazol-5-ylthio)picolinamide [Example 64] | 316
